Values quoted from earlier work in patent US10024846B2, “Methods for treating diet-induced obesity by decreasing or inhibiting P2Y2 purinergic receptor expression or activity” (The United States of America as represented by the …, priority 2012, dated 2018).

Key:
P2Y2 receptor = conditions: competitive P2Y2 receptor antagonists; values from cited literature
human P2Y4 receptor = human P2Y4 receptor (Homo sapiens, UniProt P51582); conditions: Herold et al. 2004
rat P2Y4 receptor = rat P2Y4 receptor (Rattus norvegicus, UniProt O35811); conditions: Herold et al. 2004
Chain of rat P2Y4 receptor (O35811 whole entry): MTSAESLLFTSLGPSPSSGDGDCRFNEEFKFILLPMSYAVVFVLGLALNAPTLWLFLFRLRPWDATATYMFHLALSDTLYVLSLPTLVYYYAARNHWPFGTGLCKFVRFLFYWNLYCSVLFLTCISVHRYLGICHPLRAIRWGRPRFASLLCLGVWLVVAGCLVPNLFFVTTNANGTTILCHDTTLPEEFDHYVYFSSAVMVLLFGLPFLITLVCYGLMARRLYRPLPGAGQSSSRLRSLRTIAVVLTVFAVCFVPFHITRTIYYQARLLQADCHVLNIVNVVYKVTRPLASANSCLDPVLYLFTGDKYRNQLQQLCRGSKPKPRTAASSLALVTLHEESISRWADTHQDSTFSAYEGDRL

Chain of human P2Y4 receptor (P51582 whole entry): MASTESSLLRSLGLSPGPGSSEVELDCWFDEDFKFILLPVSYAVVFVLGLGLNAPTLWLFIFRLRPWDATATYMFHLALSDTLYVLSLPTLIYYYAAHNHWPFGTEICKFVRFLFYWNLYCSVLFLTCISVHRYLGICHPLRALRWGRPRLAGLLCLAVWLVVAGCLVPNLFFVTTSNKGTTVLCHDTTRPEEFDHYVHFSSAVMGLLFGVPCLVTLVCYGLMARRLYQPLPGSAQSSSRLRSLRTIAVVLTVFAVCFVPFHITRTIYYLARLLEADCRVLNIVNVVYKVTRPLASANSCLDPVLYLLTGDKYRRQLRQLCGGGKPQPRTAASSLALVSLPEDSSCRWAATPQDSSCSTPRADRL

IC50 (P2Y2 receptor) | SMILES | agonist versus antagonist action at the P2Y4 receptor (human P2Y4 receptor) | agonist versus antagonist action at the P2Y4 receptor (rat P2Y4 receptor)
~6 µM | Cc1ccc2c(c1)C=Cc1cc(C)ccc1C2c1cn(Cc2ccc(C(=O)Nc3nnn[nH]3)o2)c(=O)[nH]c1=S [AR-C118925] | – | –
~6 µM | Cn1cc(C2c3ccc(Cl)cc3C=Cc3scnc32)c(=S)[nH]c1=O (stereo not shown) [AR-C126313] | – | –
– | Nc1ncnc2c1ncn2[C@@H]1O[C@H](COP(=O)(O)OP(=O)(O)OP(=O)(O)O)[C@@H](O)[C@H]1O [ATP] | potent competitive antagonist | potent full agonist
